Entries after “also recorded” stand apart in the source; their conditions may differ. Where two headings read alike, the source gives them in different places.
Key:
blood vessels in tumors = assay: Blood vessel lumen area in tumor sections; set-up: species or system nu/nu mice; conditions: mouse, in vivo
Description: FIG. 8A-E. (A) Nu/nu mice implanted with MiaPaCa-2 tumors were treated with vehicle (DMSO) or compounds intraperitoneally and tumor sizes were measured with an external caliper every 3-4 days. (B) Tumor sections were stained with GFP-Lys. (C) Tumor sections were stained with antibodies against pERK. (D) Tumor sections were stained with cleaved caspase 3. (E) Blood vessel lumen area was also measured in tumor sections.
Immunohistochemistry. 4-5 μm sections were deparaffinized, rehydrated, and treated with 10 mM sodium citrate for heat induced antigen retrieval. After quenching endogenous peroxidase, and blocking with 2.5% normal goat serum (Vector Laboratories S-1012), sections were incubated overnight at 4° C. with primary antibody diluted in blocking solution as recommended by manufacturer (Cell Signaling). Controls were incubated with diluted normal rabbit IgG. After incubation with biotinylated secondary antibody diluted 1:250 in blocking serum for 45 min at rt, sections were incubated with VECTASTAIN ABC reagent for 30 min, and for development of the DAB chromogen the Quanto substrate was used. Slides were counter stained with Hematoxylin. Five fields per stained section per xenograft were photographed at 10X. CC3+ and pERK+ area and number of events per field were quantitated via automated image analysis (NIS Elements BR analysis ver. 4.13.04). Vessel number and lumen area per field used the same software with manual settings to trace vessel wall contours. Antibodies used are as follows: CC3: Cell Signaling #9661, use at 1:300. (Cleaved Caspase-3 (Asp175) Antibody. Rabbit polyclonal. pERK: Cell Signaling #4370: Phospho-p44/42 MAPK (Erk1/2) (Thr202/Tyr204) (D13.14.4E) XP Rabbit mAB. CD31 (PECAM-1) (D8V9E) XP Rabbit mAB (Cell signal # (Cell signal #77699). Normal rabbit IgG: Santa Cruz #sc-3888. Concentration is 50 μg/mL or 50 ng/μL. Prepared with 5 μg in 200 μL blocking solution. Goat Anti-Rabbit IgG Biotin Conjugate: Calbiochem #OS03B, Concentration=1.2 mg/mL. Recommended to be used for IHC at 1 μg/mL.

[1] = tested on: MDCK cells co-expressing GFP-K-RASG12V and mCherry-CAAX; assay: Cytotoxicity in mislocalization screen (death of all cells in well); conditions: drug caused death of all cells in well at 30 μM
[2] = tested on: HPAC (Mut) pancreatic tumor cells; assay: CyQUANT proliferation assay; format: cell-based; conditions: Homo sapiens, HPAC, 72 h
Description: (§1) Madine Darby Canine Kidney epithelial cells (MDCK) stably co-expressing mGFP-tagged full length oncogenic mutant K-Ras (GFP—K-RASG12V) or mGFP-LactC2 (peptide probe for phosphatidylserine) and mCherry-tagged to the amino acids 179-189 of H-RasC181S, C184S (mCherry-CAAX, localizes primarily to endomembranes) were grown in DMEM-high glucose/sodium pyruvate/10% FBS. The medium was supplemented with 1× Penicillin/Streptomycin for fluorescence microscopy assays, to avoid any microbial contamination from the test compounds added. KLE and Hec50 cells were maintained in DMEM-F-12 medium supplemented with 10% FBS. Hec-1A and Hec-1B cells were grown in McCoy's 5a medium supplemented with 10% FBS. ESS-1 cells were grown in RPMI 1640 medium supplemented with 20% FBS. MPanc96 cells were grown in DMEM supplemented with 10% FBS, MiaPaCa-2 cells in DMEM supplemented with 10% FBS and 2.5% horse serum and all other cell lines were grown in RPMI 1640 supplemented with 10% FBS. All cancer cell media were supplemented with ×Penicillin/Streptomycin. All cell lines were grown at 37° C. with 5% CO2.
(§2) Cells were seeded in 96-well plates. After 24 h, fresh growth medium supplemented with 0.1% vehicle (DMSO), or various concentrations of drugs was added and cells were grown for 72 h. Cell numbers were quantified using the CyQUANT® Cell Proliferation Assay Kit (Molecular Probes, Life Technologies), according to the manufacturer's protocol. Fluorescence measurement was used as a measure of live cell number.

[3] = tested on: MiaPaCa-2 (Mut) pancreatic tumor cells; assay: CyQUANT proliferation assay; format: cell-based; conditions: Homo sapiens
Description: as §1, §2

[4] = tested on: sphingomyelin (SM) in MiaPaCa-2 tumor sections; assay: Lysenin (GFP-Lys) staining of tumor sections; format: in vivo, nu/nu mice; conditions: 12.5 mg/kg
Description: Lysenin Staining of Tumor Sections. To label intracellular SM, 3 μm thick cryosections, fixed in 4% paraformaldehyde and quenched in 0.1 M NH4Cl, were permeabilized with 0.5% saponin before overnight incubation (4° C.) with MBP-GFP Lysenin (50 μg/mL) in PBS with 0.5% saponin containing DAPI (5 ng/mL). Samples mounted in FluorSave were photographed in the Nikon AIR Confocal Laser Microscope. GFP-Lysenin binding was quantitated using NIS
Elements BR analysis ver. 4.13.04. The average value obtained in the negative control pictures (background) was subtracted from each of the GFP pictures (n=20).
To determine if the reduction in tumor growth elicited by the compounds were mediated by inhibition of ASM, we stained the tissue sections for SM using a non-toxic recombinant fragment of lysenin tagged with GFP (GFP-Lys). In DMSO-treated tumor sections, weak GFP-Lys staining was observed. […] We also observed that the blood vessels were dilated in compound 6 treated tumors, whereas the blood vessel diameters were not changed in compound 12h (NY0331) and 22 (NY0335) treated tumors (FIG. 8E).

[5] = tested on: NCI-H23 (Mut) lung tumor cells; assay: CyQUANT proliferation assay; format: cell-based; conditions: Homo sapiens
Description: as §1, §2

[6] = tested on: BxPC-3 (WT) pancreatic tumor cells; assay: CyQUANT proliferation assay; format: cell-based; conditions: Homo sapiens
Description: as §1, §2

[7] = tested on: NCI H1975 (WT) lung tumor cells; assay: CyQUANT proliferation assay; format: cell-based; set-up: key to IC50 proliferation NCI H1975 (WT): NE—Not efficacious; conditions: for IC50 proliferation NCI H1975 (WT): 72 h; for IC50: Homo sapiens, NCI-H1975, Table 11, lung
Description: as §1, §2

[8] = MIA PaCa-2, 72 h, read-out: IC50 proliferation MiaPaCa-2 (Mut)
[9] = MIA PaCa-2, Table 11, pancreatic, read-out: IC50 (μM) MiaPaCa-2 (Mut)
[10] = NCI-H23, 72 h, read-out: IC50 proliferation NCI-H23 (Mut)
[11] = NCI-H23, Table 11, lung, read-out: IC50 (μM) NCI H23 (Mut)
[12] = BXPC-3, 72 h, read-out: IC50 proliferation BxPC-3 (WT)
[13] = BXPC-3, Table 11, pancreatic, read-out: IC50 (μM) BxPC-3 (WT)

| blood vessel dilation / vasodilatory effect in tumors (blood vessels in tumors) | SMILES | blood vessel dilation / vasodilatory effect in tumors (blood vessels in tumors; listed as 12h) | Cytotoxic at 30 μM [1] | IC50 [2] [µM] | IC50 [3, 8] [µM] | IC50 [3, 9] [µM] | GFP-Lys staining (SM) of tumor sections [4] | blood vessel dilation / vasodilatory effect in tumors (blood vessels in tumors; listed as 22) | IC50 [5, 10] [µM] | IC50 [5, 11] [µM] | IC50 [6, 12] [µM] | IC50 [6, 13] [µM] | IC50 proliferation NCI H1975 (WT) [7] | IC50 [7] [µM] |
| --- | --- | --- | --- | --- | --- | --- | --- | --- | --- | --- | --- | --- | --- | --- |
| – | COc1ccc([C@@H](C)N(CC=C(c2ccccc2)c2ccccc2)CCN2CCCC2)cc1 [NY0331, (R)-N-(1-(4-methoxyphenyl)ethyl)-3,3-diphenyl-N-(2-(pyrrolidin-1-yl)ethyl)prop-2-en-1-amine] | no vasodilatory effects; also recorded: not changed | Yes | 5.15 | 3.36 | 3.1 | significantly increased | – | – | – | – | – | – | – |
| – | COc1ccc([C@@H](C)N(CC=C(c2ccccc2)c2ccccc2)CCCN2CCN(C)CC2)cc1 [NY0335, (R)-N-(1-(4-methoxyphenyl)ethyl)-N-(3-(4-methylpiperazin-1-yl)propyl)-3,3-diphenylprop-2-en-1-amine] | – | Yes | 5.81 | 2.79 | 2.8 | did not enhance GFP-Lys staining | no vasodilatory effects; also recorded: not changed | 4.14 | 4.1 | 5.34 | 5.3 | NE | > 30 |
| – | COc1ccc([C@@H](C)N(CC=C(c2ccccc2)c2ccccc2)CCN2CCN(C)CC2)cc1 [NY0244, (R)-N-(1-(4-methoxyphenyl)ethyl)-N-(2-(4-methylpiperazin-1-yl)ethyl)-3,3-diphenylprop-2-en-1-amine] | – | Yes | 5.55 | 3.03 | 3 | – | – | 3.81 | 3.8 | 5.73 | 5.7 | NE | > 30 |
| dilated | CC(NCCC(c1ccccc1)c1ccccc1)c1ccccc1 (centres unmarked) [Fendiline] | – | – | – | 9.17 | 9.2 ± 0.6 | significantly increased | – | 11.4 | 11.4 ± 1 | 28.6 | 28.6 ± 5.9 | NE | > 30 |
